One assay addresses PDGFRβ kinase (Homo sapiens (Human), UniProt P09619). Put plainly: PDGFRβ Kinase Assay (biochemical, poly-Glu-Tyr ELISA). Particulars: purified cytoplasmic domain PDGFR-b protein, 36 μM ATP. How it is done:
Biochemical PDGFR3 kinase assays were performed in 96 well microtiter plates that were coated overnight with 75 μg of poly-Glu-Tyr (4:1) in 10 mM Phosphate Buffered Saline (PBS), pH 7.4. The coated plates were washed with 2 mls per well PBS+0.05% Tween-20 (PBS-T), blocked by incubation with PBS containing 1% BSA, then washed with 2 mls per well PBS-T prior to starting the reaction. Reactions were carried out in 100 μL reaction volumes containing 36 μM ATP in kinase buffer (50 mM Hepes buffer pH 7.4, 20 mM MgCl2, 0.1 mM MnCl2 and 0.2 mM Na3VO4). Test compounds were reconstituted in 100% DMSO and added to the reaction to give a final DMSO concentration of 5%. Reactions were initiated by the addition 20 ul per well of kinase buffer containing 200-300 ng purified cytoplasmic domain PDGFR-b protein (Millipore). Following a 60 minute incubation at 30° C., the reactions were washed 2 mls per well PBS-T. 100 μl of a monoclonal anti-phosphotyrosine antibody-peroxidase conjugate diluted 1:10,000 in PBS-T was added to the wells for 30 minutes. Following a 2 mls per well wash with PBS-Tween-20, 100 μl of O-Phenylenediamine Dihydrochloride in phosphate-citrate buffer, containing urea hydrogen peroxide, was added to the wells for 7-10 minutes as a colorimetric substrate for the peroxidase. The reaction was terminated by the addition of 100 μl of 2.5N H2SO4 to each well and read using a microplate ELISA reader set at 492 nm. IC50 values for compound inhibition were calculated directly from graphs of optical density (arbitrary units) versus compound concentration following subtraction of blank values.
A general note: In an ELISA, binding on a coated surface is turned into a signal by an enzyme label.

A further assay deals with VEGFR2 (KDR) kinase (Homo sapiens (Human), UniProt P35968). Put plainly: VEGFR2 Kinase Assay (biochemical KDR kinase assay, poly-Glu-Tyr ELISA). Particulars: purified cytoplasmic domain KDR protein, 2.7 μM ATP. How it is done: VEGFR2 kinase potency of select analogs was determined by the following assay:
Biochemical KDR kinase assays were performed in 96 well microtiter plates that were coated overnight with 75 μg/well of poly-Glu-Tyr (4:1) in 10 mM Phosphate Buffered Saline (PBS), pH 7.4. The coated plates were washed with 2 mls per well PBS+0.05% Tween-20 (PBS-T), blocked by incubation with PBS containing 1% BSA, then washed with 2 mls per well PBS-T prior to starting the reaction. Reactions were carried out in 100 μL reaction volumes containing 2.7 μM ATP in kinase buffer (50 mM Hepes buffer pH 7.4, 20 mM MgCl2, 0.1 mM MnCl2 and 0.2 mM Na3VO4). Test compounds were reconstituted in 100% DMSO and added to the reaction to give a final DMSO concentration of 5%. Reactions were initiated by the addition 20 ul per well of kinase buffer containing 200-300 ng purified cytoplasmic domain KDR protein (BPS Bioscience, San Diego, Calif.). Following a 15 minute incubation at 30° C., the reactions were washed 2 mls per well PBS-T. 100 μl of a monoclonal anti-phosphotyrosine antibody-peroxidase conjugate diluted 1:10,000 in PBS-T was added to the wells for 30 minutes. Following a 2 mis per well wash with PBS-Tween-20, 100μl of O-Phenylenediamine Dihydrochloride in phosphate-citrate buffer, containing urea hydrogen peroxide, was added to the wells for 7-10 minutes as a colorimetric substrate for the peroxidase. The reaction was terminated by the addition of 100 μl of 2.5N H2SO4 to each well and read using a microplate ELISA reader set at 492 nm. IC50 values for compound inhibition were calculated directly from graphs of optical density (arbitrary units) versus compound concentration following subtraction of blank values.

Consider 5 compounds from patent US9321766B1, “Kinase inhibitors” (Allergan, Inc., priority 2014, dated 2016).

Bounds are passed on as bounds.

Sequence of PDGFRβ kinase (P09619 554-1106): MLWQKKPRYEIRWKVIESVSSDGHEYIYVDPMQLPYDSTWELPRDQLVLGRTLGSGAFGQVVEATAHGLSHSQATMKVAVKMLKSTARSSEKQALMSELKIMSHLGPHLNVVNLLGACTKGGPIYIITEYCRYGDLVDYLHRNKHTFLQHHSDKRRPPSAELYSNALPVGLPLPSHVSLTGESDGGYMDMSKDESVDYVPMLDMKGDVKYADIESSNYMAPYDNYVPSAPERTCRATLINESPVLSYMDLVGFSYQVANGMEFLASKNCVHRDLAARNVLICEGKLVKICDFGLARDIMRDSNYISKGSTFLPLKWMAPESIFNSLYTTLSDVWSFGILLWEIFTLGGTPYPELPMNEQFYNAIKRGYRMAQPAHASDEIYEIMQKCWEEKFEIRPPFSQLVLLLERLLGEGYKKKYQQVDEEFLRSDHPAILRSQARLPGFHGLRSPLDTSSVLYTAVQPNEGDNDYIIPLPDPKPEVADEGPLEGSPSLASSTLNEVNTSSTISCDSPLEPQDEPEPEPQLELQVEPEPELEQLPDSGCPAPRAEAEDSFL
Sequence of VEGFR2 (KDR) kinase (P35968 786-1356, species assumed): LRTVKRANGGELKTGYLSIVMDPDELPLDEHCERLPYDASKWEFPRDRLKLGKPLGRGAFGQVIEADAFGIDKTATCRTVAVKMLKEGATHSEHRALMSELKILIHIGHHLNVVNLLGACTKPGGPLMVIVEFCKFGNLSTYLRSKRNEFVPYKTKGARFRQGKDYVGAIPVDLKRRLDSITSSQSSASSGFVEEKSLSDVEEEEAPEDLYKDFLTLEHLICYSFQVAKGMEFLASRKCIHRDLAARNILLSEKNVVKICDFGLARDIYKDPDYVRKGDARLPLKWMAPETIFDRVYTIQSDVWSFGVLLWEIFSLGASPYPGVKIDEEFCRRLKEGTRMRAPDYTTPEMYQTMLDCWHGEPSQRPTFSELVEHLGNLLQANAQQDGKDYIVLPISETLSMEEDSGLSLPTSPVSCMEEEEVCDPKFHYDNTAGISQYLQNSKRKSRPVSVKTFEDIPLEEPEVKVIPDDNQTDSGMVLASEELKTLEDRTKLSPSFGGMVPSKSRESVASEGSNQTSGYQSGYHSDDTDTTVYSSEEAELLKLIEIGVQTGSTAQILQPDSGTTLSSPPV

For orientation: IC50 means the concentration at which inhibition is half-maximal. Higher therefore signals lower potency. Consider `Cc1ccoc1C(=O)Nc1ccc(-n2ccc(C)c(N3CCc4nc(N)ncc4C3)c2=O)cc1` [Example 17, N-{4-[3-(2-amino-7,8-dihydropyrido[4,3-d]pyrimidin-6(5H)-yl)-4-methyl-2-oxopyridin-1(2H)-yl]phenyl}-3-methyl-2-furamide], for which the IC50 came to 33 nM against PDGFRβ kinase and 29 nM at VEGFR2 (KDR) kinase.

As for `Cc1ccn(-c2ccc(C(C)(C)C)cc2)c(=O)c1N1CCc2nc(N)ncc2C1` [Example 4, 3-(2-amino-7,8-dihydropyrido[4,3-d]pyrimidin-6(5H)-yl)-1-(4-tert-butylphenyl)-4-methylpyridin-2(1H)-one], the IC50 was 381 nM at PDGFRβ kinase and 86 nM at VEGFR2 (KDR) kinase.

As to `Cc1ccn(-c2cccc(N(C)C)c2)c(=O)c1N1CCc2nc(N)ncc2C1` [Example 14, 3-(2-amino-7,8-dihydropyrido[4,3-d]pyrimidin-6(5H)-yl)-1-[3-(dimethylamino)phenyl]-4-methylpyridin-2(1H)-one], the values for the IC50 against PDGFRβ kinase and at VEGFR2 (KDR) kinase were greater than 1000 nM and 327 nM, respectively.

In the case of `CC(C)(C)c1ccc(-n2cccc(N3CCc4nc(N)ncc4C3)c2=O)cc1` [Example 2, 3-(2-amino-7,8-dihydropyrido[4,3-d]pyrimidin-6(5H)-yl)-1-(4-(tert-butyl)phenyl)pyridin-2(1H)-one], the values for the IC50 at PDGFRβ kinase and against VEGFR2 (KDR) kinase were 655 nM and 286 nM, respectively.

On to `Cc1cc[nH]c(=O)c1N1CCc2nc(N)ncc2C1` [Example 3, 3-(2-amino-7,8-dihydropyrido[4,3-d]pyrimidin-6(5H)-yl)-4-methylpyridin-2(1H)-one], for which the IC50 on PDGFRβ kinase was 3890 nM; at VEGFR2 (KDR) kinase it was greater than 10000 nM.
